The conditions of series [1]: ref Comptox, PubChem or DrugBank; cited from earlier work.
Series [2] relates to zebrafish embryos. Details: method as in earlier work. Conditions: nominal, cited from earlier work.
Series [3] has as its system rat cardiomyoblast cells vs fish / zebrafish embryos. Description: Potency ratios of the Rodrigues et al. data. Conditions: bioavailable concentrations; embryo data chronic exposure 35 dpf.

SMILES strings stand for the structures.

The values that follow come from publication PMC7872314, “Modeling Bioavailable Concentrations in Zebrafish Cell Lines and Embryos Increases the Correlation of Toxicity Potencies across Test Systems” (Environmental Science & Technology, 2020).

`CCOP(=S)(OCC)Oc1nc(Cl)c(Cl)cc1Cl` [Chlorpyrifos]: in series [1], the “Water Solubility” value was 1.4 µg/mL, the logKow was 4.96 and the “pKa (Strongest Basic)” value is -4.2.

With `CCOP(=S)(OCC)Oc1cc(C)nc(C(C)C)n1` [Diazinon], in series [1], the logKow is reported as 3.81 and the “pKa (Strongest Basic)” value is reported as 4.2.

For `c1ccc2[nH]c(-c3cscn3)nc2c1` [Thiabendazole], in series [1], the logKow was 2.47 and the “pKa (Strongest Basic)” value was 4.6.

As for `CCNc1nc(Cl)nc(NC(C)(C)C)n1` [Terbuthylazine], in series [1], the logKow is 3.21 and the “pKa (Strongest Basic)” value was 2.

Turning to `CCNc1nc(Cl)nc(NC(C)C)n1` [Atrazine], in series [1], the logKow is on record as 2.61 and the “pKa (Strongest Basic)” value is reported as 1.6.

One may read the EC50 as the midpoint of the concentration-response curve. Consider `COCC(=O)Nc1cc(Sc2ccccc2)ccc1N/C(=N\C(=O)OC)NC(=O)OC` [Febantel, febantel], for which, in series [2] (144 hpf, converted), the EC50 is 761 nM. Besides, in series [2] (log10), the “logEC50 144 hpf” value is recorded as -6.118 M.

For `CNC(=O)Oc1ccccc1OC(C)C` [Propoxur], in series [1], the logKow is 1.52, the “pKa (Strongest Acidic)” value is listed as 14.8 and the “pKa (Strongest Basic)” value is -4.9.

With `Cl[C@H]1[C@H](Cl)[C@@H](Cl)[C@@H](Cl)[C@H](Cl)[C@H]1Cl` [Lindane], in series [3], the “potency ratio (Rodrigues et al. data)” value is 13.6. Further, in series [1], the “Water Solubility” value was 7.3 µg/mL and the logKow is reported as 3.72.

On to `CC1(C)C(C=C(Cl)Cl)C1C(=O)OCc1cccc(Oc2ccccc2)c1` (centres unmarked) [Permethrin], for which, in series [1], the logKow was 6.5 and the “pKa (Strongest Basic)” value is given as -3.7.

For `COP(=S)(OC)Oc1ccc([N+](=O)[O-])c(C)c1` [Fenitrothion], in series [1], the logKow was 3.3.

`COP(=O)(OC)OC=C(Cl)Cl` [Dichlorvos]: the logKow in series [1] is 1.43.
